According to patent publication US4476133A, “Triazolo-4,1-benzoxazepines having CNS activity” (Shionogi & Co., Ltd., priority 1980, dated 1984):

Legend:
benzodiazepine receptors = test: radio receptor assay using receptors extracted from brains of rats and 3H-diazepam; type: binding; settings: receptors extracted from rat brains
tonic convulsion = test: antipentylenetetrazole test indicating anticonvulsive activities; type: in vivo; settings: Mus musculus; oral, 60 min before s.c. pentylenetetrazole 125 mg/kg; mortality observed for 2 h; DS male mice
Description: In determination of the antipentylenetetrazole activity, four test lots consisting of 4×10 DS male mice were employed. Within 15 minutes after single subcutaneous injection of 125 mg/kg (body weight of mouse) of pentylenetetrazole (a kind of convulsion reagent given as an aqueous solution), the mice were attacked by tonic convulsion which killed them. Test compound was orally administered 60 minutes before said s.c. injection. Observation was made for two hours postinjection of pentylenetetrazole. Anticonvulsant activity was determined in mortality percentage between 100% (all the mice dead) and 0% (all the mice alive). Test results are shown by preventive ED50 value (Effective Doses in mg/kg, a theoretical level of 50% alive and 50% dead)[Goodman, et al.: J. Pharmacol., 108, 168 (1953)].

acute toxicity = settings: mouse, in vivo; oral; DS infant male mice, 20 to 23 g; observed 72 hours; Bliss method
Description: Test compounds were orally administered to DS infant male mice with four toxic doses. For each dose 10 mice were used, their body weights ranging from 20 to 23 grams. […] Mortality was calculated by the Bliss method [Bliss: Ann. Appln. Biol., 23, 134-307 (1935); Quant. J. Pharmacol., 11, 192 (1938)].

**Q.** Which Ki (benzodiazepine receptors) does the source give for `OCc1nnc2n1-c1ccc(Cl)cc1C(c1ccccc1Cl)OC2` (stereo not drawn) [1-Hydroxymethyl-6-(2-chlorophenyl)-8-chloro-4H,6H-(1,2,4)triazolo[4,3-a][4,1]benzoxazepine] here?
**A.** Its Ki is 3.45 nM.

**Q.** Which ED50 (tonic convulsion) does the source give for `Clc1ccc2c(c1)C(c1ccccc1Cl)OCc1nncn1-2` (stereo not drawn) [Compound 1] here?
**A.** Its ED50 is 1.25 mg/kg.

**Q.** And the LD50 at 72 h (acute toxicity)?
**A.** The LD50 at 72 h was over 1000 mg/kg.

**Q.** For `Clc1ccc2c(c1)C(c1ccccc1Cl)OCc1nnc(N3CCOCC3)n1-2` (stereo not drawn) [Compound 2], which ED50 (tonic convulsion) is on record?
**A.** Its ED50 is 4.26 mg/kg.

**Q.** And the LD50 at 72 h (acute toxicity)?
**A.** Its LD50 at 72 h is over 1000 mg/kg.

**Q.** With `COCc1nnc2n1-c1ccc(Cl)cc1C(c1ccccc1Cl)OC2` (stereo not drawn) [Compound 3] as the compound, how does the ED50 (tonic convulsion) read?
**A.** Its ED50 is 2.38 mg/kg.

**Q.** What about the LD50 at 72 h (acute toxicity) of the same compound?
**A.** The LD50 at 72 h was over 1000 mg/kg.

**Q.** For `CC(=O)OCc1nnc2n1-c1ccc(Cl)cc1C(c1ccccc1Cl)OC2` (stereo not drawn) [Compound 4], which ED50 (tonic convulsion) is on record?
**A.** Its ED50 is 1.2 mg/kg.

**Q.** What about the LD50 at 72 h (acute toxicity) of the same compound?
**A.** Its LD50 at 72 h is over 1000 mg/kg.

**Q.** With `Clc1ccc2c(c1)C(c1ccccc1Cl)OCc1nnc(CN3CCOCC3)n1-2` (stereo not drawn) [Compound 5] as the compound, how does the ED50 (tonic convulsion) read?
**A.** The ED50 was 3.81 mg/kg.

**Q.** And the LD50 at 72 h (acute toxicity)?
**A.** The LD50 at 72 h was over 1000 mg/kg.

**Q.** With `OCc1nnc2n1-c1ccc(Cl)cc1C(c1ccccc1Cl)OC2` (stereo not drawn) [Compound 6] as the compound, how does the ED50 (tonic convulsion) read?
**A.** Its ED50 is 3.25 mg/kg.

**Q.** And the LD50 at 72 h (acute toxicity)?
**A.** Its LD50 at 72 h is over 1000 mg/kg.

**Q.** For `CCOCc1nnc2n1-c1ccc(Cl)cc1C(c1ccccc1Cl)OC2` (stereo not drawn) [Compound 7], which ED50 (tonic convulsion) is on record?
**A.** The ED50 was 2.13 mg/kg.

**Q.** And the LD50 at 72 h (acute toxicity)?
**A.** The LD50 at 72 h was over 1000 mg/kg.

**Q.** For `CN(C)Cc1nnc2n1-c1ccc(Cl)cc1C(c1ccccc1Cl)OC2` (stereo not drawn) [Compound 8], which ED50 (tonic convulsion) is on record?
**A.** The ED50 was 1.02 mg/kg.

**Q.** What about the LD50 at 72 h (acute toxicity) of the same compound?
**A.** The LD50 at 72 h was over 1000 mg/kg.

**Q.** With `Clc1ccc2c(c1)C(c1ccccc1Cl)OCc1nnc(CN3CCCC3)n1-2` (stereo not drawn) [Compound 9] as the compound, how does the ED50 (tonic convulsion) read?
**A.** Its ED50 is 4.63 mg/kg.

**Q.** And the LD50 at 72 h (acute toxicity)?
**A.** Its LD50 at 72 h is over 1000 mg/kg.

**Q.** Which ED50 (tonic convulsion) does the source give for `CC(C)OCc1nnc2n1-c1ccc(Cl)cc1C(c1ccccc1Cl)OC2` (stereo not drawn) [Compound 10] here?
**A.** The ED50 was 2.42 mg/kg.

**Q.** And the LD50 at 72 h (acute toxicity)?
**A.** The LD50 at 72 h was over 1000 mg/kg.

**Q.** Which ED50 (tonic convulsion) does the source give for `CCCOCc1nnc2n1-c1ccc(Cl)cc1C(c1ccccc1Cl)OC2` (stereo not drawn) [Compound 11] here?
**A.** Its ED50 is 3.09 mg/kg.

**Q.** And the LD50 at 72 h (acute toxicity)?
**A.** Its LD50 at 72 h is over 1000 mg/kg.

**Q.** With `Cn1nc2n(c1=O)-c1ccc(Cl)cc1C(c1ccccc1Cl)OC2` (stereo not drawn) [Compound 12] as the compound, how does the ED50 (tonic convulsion) read?
**A.** Its ED50 is 3.46 mg/kg.

**Q.** And the LD50 at 72 h (acute toxicity)?
**A.** Its LD50 at 72 h is over 1000 mg/kg.

**Q.** For `Cc1nnc2n1-c1ccc(Cl)cc1C(c1ccccc1Cl)OC2C` (stereo not drawn) [Compound 13], which ED50 (tonic convulsion) is on record?
**A.** The ED50 was 1.19 mg/kg.

**Q.** What about the LD50 at 72 h (acute toxicity) of the same compound?
**A.** The LD50 at 72 h was over 1000 mg/kg.

**Q.** What does the source list for `CC(=O)OCCc1nnc2n1-c1ccc(Cl)cc1C(c1ccccc1Cl)OC2C` (stereo not drawn) [Compound 14]?
**A.** ED50 (tonic convulsion): 1.67 mg/kg; LD50 at 72 h (acute toxicity): > 1000 mg/kg

**Q.** With `Cc1nnc2n1-c1ccc(Cl)cc1C(c1ccccc1C(F)(F)F)OC2` (stereo not drawn) [Compound 15] as the compound, how does the ED50 (tonic convulsion) read?
**A.** Its ED50 is 1.41 mg/kg.

**Q.** And the LD50 at 72 h (acute toxicity)?
**A.** Its LD50 at 72 h is over 1000 mg/kg.

**Q.** For `CN1C(=O)CN=C(c2ccccc2)c2cc(Cl)ccc21` [Diazepam, reference compound], which ED50 (tonic convulsion) is on record?
**A.** The ED50 was 1.2 mg/kg.

**Q.** Which LD50 at 72 h (acute toxicity) does the source give for `CN1CCN=C(c2ccccc2)c2cc(Cl)ccc21` [Medazepam, reference compound] here?
**A.** Its LD50 at 72 h is over 1000 mg/kg.
